pIC50: −log10 of the molar value.

T1 sequence (Q9UM07 2-663): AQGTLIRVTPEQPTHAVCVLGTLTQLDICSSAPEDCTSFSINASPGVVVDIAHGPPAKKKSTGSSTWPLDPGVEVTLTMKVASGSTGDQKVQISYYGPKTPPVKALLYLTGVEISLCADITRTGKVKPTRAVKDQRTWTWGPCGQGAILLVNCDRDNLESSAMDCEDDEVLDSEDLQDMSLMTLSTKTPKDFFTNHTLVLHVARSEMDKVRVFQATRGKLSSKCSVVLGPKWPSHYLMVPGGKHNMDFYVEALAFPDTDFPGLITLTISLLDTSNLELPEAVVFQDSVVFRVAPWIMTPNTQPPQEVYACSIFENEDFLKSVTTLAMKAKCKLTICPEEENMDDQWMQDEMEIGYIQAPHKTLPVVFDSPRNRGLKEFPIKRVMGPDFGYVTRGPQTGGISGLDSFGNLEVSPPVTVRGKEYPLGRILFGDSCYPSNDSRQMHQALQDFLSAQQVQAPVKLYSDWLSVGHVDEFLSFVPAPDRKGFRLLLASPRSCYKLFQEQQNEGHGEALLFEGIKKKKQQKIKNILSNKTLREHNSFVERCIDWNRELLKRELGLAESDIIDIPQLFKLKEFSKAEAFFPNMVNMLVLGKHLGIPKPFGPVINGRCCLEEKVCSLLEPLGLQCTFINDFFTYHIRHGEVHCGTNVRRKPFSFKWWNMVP

This assay concerns the target T1, human PAD4 (Homo sapiens, UniProt Q9UM07).
T1 construct: human PAD4 (NM_012387), A2P663, was PCR amplified; His-SUMO (N, cleaved yes); made in house; host or cells: E. coli BL21(DE3)
Briefly: In vitro PAD4 BAEE biochemical assay. The note with it: human PAD4, BAEE substrate; 5 nM PAD4, 2 mM calcium chloride, 3 mM BAEE; geometric mean of multiple experiments. An outline of the steps: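 Tag-free recombinant hPAD4 (5 nM), 2 mM CaCl2, 3 mM BAEE, 50 mM MOPS pH 7.6, 2 mM DTT; 30 min compound preincubation, 2 h reaction, all 25 °C. EDTA quench; ammonia read via o-phthalaldehyde amine coupling, 1 h.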
Consider `COc1cc(C(=O)N2C[C@H]3CC[C@@H]2[C@H](N)C3)cc2nc(-c3cc4ccc(N(C(F)F)S(C)(=O)=O)nc4n3CC3CC3)c(C)n12` [Example 381, ~{N}-[2-[7-[(1~{R},4~{S}, 6~{R})-6-amino-2-azabicyclo[2.2.2]octane-2-carbonyl]-5-methoxy-3-methylimidazo[1,2-a]pyridin-2-yl]-1-(cyclopropylmethyl)pyrrolo [2,3-b]pyridin-6-yl]-~{N}-(difluoromethyl) methanesulfonamide], for which the pIC50 (as a rule, the negative decadic logarithm of the IC50, by convention in mol/L) is 6.27.

For `COc1cc(C(=O)N2[C@H]3CC[C@@H]2[C@H](N)C3)cc2nc(-c3cc4ccc(C(C)n5cncn5)nc4n3CC3CC3)c(C)n12` (stereo partly shown) [Example 546, [(1~{R},2~{R},4~{S})-2-amino-7-azabicyclo [2.2.1]heptan-7-yl]-[2-[1-(cyclopropylmethyl)-6-[1-(1,2,4-triazol-1-yl)ethyl]pyrrolo[2,3-b]pyridin-2-yl]-5-methoxy-3-methylimidazo[1,2-a]pyridin-7-yl]methanone], the pIC50 was 6.81.

In the case of `COc1cc(C(=O)N[C@@H]2CNCC[C@H]2C)cc2nc(-c3cc4ccc(N(C(F)F)S(C)(=O)=O)nc4n3CC3CC3)c(C)n12` [Example 281, 2-[1-(cyclopropylmethyl)-6-[difluoromethyl (methylsulfonyl)amino]pyrrolo[2,3-b]pyridin-2-yl]-5-methoxy-3-methyl-~{N}-[(3~{S},4~{R})-4-methylpiperidin-3-yl] imidazo[1,2-a]pyridine-7-carboxamide], the pIC50 is 4.79.

For the molecule `COc1cc(C(=O)N2[C@H]3CC[C@@H]2[C@H](N)C3)cc2nc(-c3cc4ccc(-c5cccnc5C(F)(F)F)nc4n3CC3CC3)c(C)n12` [Example 551, [(1~{R},2~{R},4~{S})-2-amino-7-azabicyclo [2.2.1]heptan-7-yl]-[2-[1-(cyclopropylmethyl)-6-[2-(trifluoromethyl)pyridin-3-yl]pyrrolo[2,3-b]pyridin-2-yl]-5-methoxy-3-methylimidazo [1,2-a]pyridin-7-yl] methanone], the pIC50 is 6.29.

Regarding `COc1cc(C(=O)N2[C@H]3CC[C@@H]2[C@H](N)C3)cc2nc(-c3cc4ccc([C@@H](C)NC(=O)c5ccccc5C(F)(F)F)nc4n3CC3CC3)c(C)n12` [Example 10, ~{N}-[(1~{R})-1-[2-[7-[(1~{R},2~{R},4~{S})-2-amino-7-azabicyclo [2.2.1]heptane-7-carbonyl]-5-methoxy-3-methylimidazo [1,2-a]pyridin-2-yl]-1-(cyclopropylmethyl)pyrrolo[2,3-b]pyridin-6-yl]ethyl]-2-(trifluoromethyl) benzamide], the pIC50 is 6.59.

On to `COc1cc(C(=O)N2CC[C@H]3C[C@@]3(N)C2)cc2nc(-c3cc4ccc(N(C(F)F)S(C)(=O)=O)nc4n3CC3CC3)c(C)n12` [Example 362, ~{N}-[2-[7-[(1~{S}, 6~{S})-1-amino-3-azabicyclo[4.1.0]heptane-3-carbonyl]-5-methoxy-3-methylimidazo [1,2-a]pyridin-2-yl]-1-(cyclopropylmethyl)pyrrolo [2,3-b]pyridin-6-yl]-~{N}-(difluoromethyl) methanesulfonamide], for which the pIC50 was 6.61.

On to `COc1cc(C(=O)N2[C@H]3CC[C@@H]2[C@H](N)C3)cc2nc(-c3cc4ccc([C@@H](C)NC(=O)N5CC(C(F)F)C5)nc4n3CC3CC3)c(C)n12` [Example 206, ~{N}-[(1~{R})-1-[2-[7-[(1~{R},2~{R},4~{S})-2-amino-7-azabicyclo[2.2.1]heptane-7-carbonyl]-5-methoxy-3-methylimidazo [1,2-a]pyridin-2-yl]-1-(cyclopropylmethyl)pyrrolo [2,3-b]pyridin-6-yl]ethyl]-3-(difluoromethyl)azetidine-1-carboxamide], for which the pIC50 was 7.42.

For the molecule `COc1cc(C(=O)N2[C@H]3CC[C@@H]2[C@H](N)C3)cc2nc(-c3cc4ccc([C@@H](C)NC(=O)C(C)(O)C(C)C)nc4n3CC3CC3)c(C)n12` (stereo partly shown) [Example 93, ~{N}-[(1~{R})-1-[2-[7-[(1~ {R},2~{R},4~{S})-2-amino-7-azabicyclo[2.2.1]heptane-7-carbonyl]-5-methoxy-3-methylimidazo [1,2-a]pyridin-2-yl]-1-(cyclopropylmethyl)pyrrolo [2,3-b]pyridin-6-yl]ethyl]-2-hydroxy-2,3-dimethylbutanamide], the pIC50 is 7.16.

Regarding `CCOC(=O)CC(C)c1ccc2cc(-c3nc4cc(C(=O)N5[C@H]6CC[C@@H]5[C@H](N)C6)cc(OC)n4c3C)n(CC3CC3)c2n1` (stereo partly shown) [Example 559, ethyl 3-[2-[7-[(1~{R}, 2~{R},4~{S})-2-amino-7-azabicyclo[2.2.1]heptane-7-carbonyl]-5-methoxy-3-methylimidazo[1,2-a]pyridin-2-yl]-1-(cyclopropylmethyl)pyrrolo[2,3-b]pyridin-6-yl]butanoate], the pIC50 was 7.02.

As for `CNc1cc(C(=O)N2CCC[C@@H](N)C2)cc2nc(-c3cc4ccc(N(C(F)F)S(C)(=O)=O)nc4n3CC3CC3)c(C)n12` [Example 421, ~{N}-[2-[7-[(3~{R})-3-aminopiperidine-1-carbonyl]-3-methyl-5-(methylamino)imidazo[1,2-a]pyridin-2-yl]-1-(cyclopropylmethyl)pyrrolo [2,3-b]pyridin-6-yl]-~{N}-(difluoromethyl) methanesulfonamide], the pIC50 was 6.47.

Consider `COc1cc(C(=O)N2[C@H]3CC[C@@H]2[C@H](N)C3)cc2nc(-c3cc4ccc([C@@H](C)NC(=O)C5CCOCC5)nc4n3CC3CC3)c(C)n12` [Example 150, ~{N}-[(1~{R})-1-[2-[7-[(1~{R},2~{R},4~{S})-2-amino-7-azabicyclo[2.2.1]heptane-7-carbonyl]-5-methoxy-3-methylimidazo [1,2-a]pyridin-2-yl]-1-(cyclopropylmethyl)pyrrolo [2,3-b]pyridin-6-yl]ethyl] oxane-4-carboxamide], for which the pIC50 was 7.39.

`COc1cc(C(=O)N2CC[C@H]3CCCN[C@H]3C2)cc2nc(-c3cc4ccc([C@@H](C)NC(=O)C56CC(F)(C5)C6)nc4n3CC3CC3)c(C)n12` [Example 180, ~{N}-[(1~{R})-1-[2-[7-[(4~{a}~{R},8~{a}~{R})-2,3,4,4~{a},5,6,8,8~{a}-octahydro-1~{H}-1,7-naphthyridine-7-carbonyl]-5-methoxy-3-methylimidazo [1,2-a]pyridin-2-yl]-1-(cyclopropylmethyl)pyrrolo [2,3-b]pyridin-6-yl]ethyl]-3-fluorobicyclo[1.1.1]pentane-1-carboxamide]: the pIC50 was 6.31.

Consider `CCOC(=O)N(C)c1ccc2cc(-c3nc4cc(C(=O)N5[C@H]6CC[C@@H]5[C@@H](N)CC6)cc(OC)n4c3C)n(CC3CC3)c2n1` [Example 491, ethyl~{N}-[2-[7-[(1~{R}, 2~{S},5~{R})-2-amino-8-azabicyclo[3.2.1]octane-8-carbonyl]-5-methoxy-3-methylimidazo[1,2-a]pyridin-2-yl]-1-(cyclopropylmethyl)pyrrolo [2,3-b]pyridin-6-yl]-~{N}-methylcarbamate], for which the pIC50 was 4.49.

As to `COc1cc(C(=O)N2CCC3(CCCNC3)C2)cc2nc(-c3cc4ccc([C@@H](C)NC(=O)C56CC(F)(C5)C6)nc4n3CC3CC3)c(C)n12` (stereo partly shown) [Example 5, ~{N}-[(1~{R})-1-[1-(cyclopropylmethyl)-2-[7-(2,9-diazaspiro[4.5]decane-2-carbonyl)-5-methoxy-3-methylimidazo[1,2-a]pyridin-2-yl]pyrrolo [2,3-b]pyridin-6-yl]ethyl]-3-fluorobicyclo[1.1.1] pentane-1-carboxamide], the pIC50 was 4.72.

Turning to `COc1cc(C(=O)N2[C@H]3CC[C@@H]2[C@H](N)C3)cc2nc(-c3cc4ccc([C@@H](C)NC(=O)C5CC5)nc4n3CC3CC3)c(C)n12` [Example 78, ~{N}-[(1~{R})-1-[2-[7-[(1~{R},2~{R},4~{S})-2-amino-7-azabicyclo[2.2.1]heptane-7-carbonyl]-5-methoxy-3-methylimidazo [1,2-a]pyridin-2-yl]-1-(cyclopropylmethyl)pyrrolo [2,3-b]pyridin-6-yl]ethyl] cyclopropanecarboxamide], the pIC50 was 7.38.

Take `Cc1c(-c2cc3ccc(N(C(F)F)S(C)(=O)=O)nc3n2CC2CC2)nc2cc(C(=O)N3CCC[C@@H](N)C3)cc(C(F)F)n12` [Example 423, ~{N}-[2-[7-[(3~{R})-3-aminopiperidine-1-carbonyl]-5-(difluoromethyl)-3-methylimidazo[1,2-a]pyridin-2-yl]-1-(cyclopropylmethyl)pyrrolo [2,3-b]pyridin-6-yl]-~{N}-(difluoromethyl) methanesulfonamide]: the pIC50 is 5.75.

In the case of `COc1cc(C(=O)N2[C@H]3CC[C@@H]2[C@H](N)C3)cc2nc(-c3cc4ccc([C@@H](C)N5CCOC5=O)nc4n3CC3CC3)c(C)n12` [Example 275, 3-((R)-1-(2-(7-((1R,2R,4S)-2-amino-7-azabicyclo[2.2.1]heptane-7-carbonyl)-5-methoxy-3-methylimidazo[1,2-a]pyridin-2-yl)-1-(cyclopropylmethyl)-1H-pyrrolo[2,3-b]pyridin-6-yl)ethyl)oxazolidin-2-one], the pIC50 is 7.85.

Consider `COc1cc(C(=O)N2[C@H]3CC[C@@H]2[C@H](N)C3)cc2nc(-c3cc4ccc([C@@H](C)NC(=O)c5ccccc5C)nc4n3CC3CC3)c(C)n12` [Example 121, ~{N}-[(1~{R})-1-[2-[7-[(1~{R},2~{R},4~{S})-2-amino-7-azabicyclo[2.2.1]heptane-7-carbonyl]-5-methoxy-3-methylimidazo [1,2-a]pyridin-2-yl]-1-(cyclopropylmethyl)pyrrolo [2,3-b]pyridin-6-yl]ethyl]-2-methylbenzamide], for which the pIC50 is 6.97.

In the case of `COc1cc(C(=O)N2C[C@H]3C[C@H](O)[C@@H]2[C@@H]3N)cc2nc(-c3cc4ccc(N(C(F)F)S(C)(=O)=O)nc4n3CC3CC3)c(C)n12` [Example 378, N-[2-[7-[(1S,4R,6S,7R)-7-amino-6-hydroxy-2-azabicyclo[2.2.1]heptane-2-carbonyl]-5-methoxy-3-methyl-imidazo [1,2-a]pyridin-2-yl]-1-(cyclopropylmethyl)pyrrolo [2,3-b]pyridin-6-yl]-N-(difluoromethyl) methanesulfonamide], the pIC50 is 6.47.
